{"source": "patent US20210029994A1", "about": "“HERBICIDE COMPOSITIONS AND METHODS OF CONTROLLING GROWTH OF PLANTS” (priority 2019, published 2021)", "type_in_all_cases": "in vivo", "key": {"[1]": {"system": "Amaranthus hybridus L. (smooth pigweed), Group 2,5 Resistant", "assay": "Post-emergent treatment of potted weeds with herbicide composition, 7 day growth (FIG. 7)", "conditions": "1% Juglone; weeds about 0-2 weeks post emergent (about 2-5 cm); 7 days after treatment", "protocol": "(§1) Referring now to the figures, pictures of various weeds are shown herein after being treated with an herbicide composition described herein. In all of the pictures provided herein, weeds that were about 0-2 weeks post emergent (e.g. about 2-5 cm in height) were treated with an herbicide composition having a 1% Juglone concentration. In most cases, plant damage was observed within two hours of treatment of the weeds with the herbicide composition.\nFIG. 7 is a picture of three pots showing 7 day growth of Amaranthus hybridus L. (smooth pigweed), Group 2,5 Resistant, when left untreated, treated with 1% Juglone, and treated with a control (i.e. solvent/surfactant, no active ingredient), respectively."}, "[2]": {"system": "Amaranthus retroflexus L. (pigweed), Group 2,5 Resistant", "assay": "Post-emergent treatment of potted weeds with herbicide composition, 7 day growth (FIG. 5)", "conditions": "1% Juglone; weeds about 0-2 weeks post emergent (about 2-5 cm); 7 days after treatment", "protocol": "as §1\nFIG. 5 is a picture of two pots showing 7 day growth of Amaranthus retroflexus L. (pigweed), Group 2,5 Resistant, when left untreated and treated with 1% Juglone, respectively."}, "[3]": {"system": "Amaranthus rudis JD Sauer (Waterhemp), Group 2,4,5,14,9,27 Resistant", "assay": "Post-emergent treatment of potted weeds with herbicide composition, 7 day growth (FIG. 2)", "conditions": "1% Juglone; weeds about 0-2 weeks post emergent (about 2-5 cm); 7 days after treatment", "protocol": "as §1\nFIG. 2 is a picture of three pots showing 7 day growth of Amaranthus rudis JD Sauer (Waterhemp), Group 2,4,5,14,9,27 Resistant, when left untreated, treated with 1% Juglone, and treated with a control (i.e. solvent/surfactant, no active ingredient), respectively."}, "[4]": {"system": "Amaranthus powelli (Powell's Amaranth), Group 2,5 resistant", "assay": "Post-emergent treatment of potted weeds with herbicide composition, 7 day growth (FIG. 1)", "conditions": "1% Juglone, weeds about 0-2 weeks post emergent (about 2-5 cm), 7 days after treatment", "protocol": "as §1\nSpecifically, FIG. 1 is a picture of three pots showing 7 day growth of Amaranthus powelli (Powell's Amaranth), Group 2,5 resistant, when left untreated, treated with 1% Juglone, and treated with a control (i.e. solvent/surfactant, no active ingredient), respectively."}, "[5]": {"system": "Amaranthus rudis JD Sauer (Waterhemp), non-resistant", "assay": "Post-emergent treatment of potted weeds with herbicide composition, 7 day growth (FIG. 3)", "conditions": "1% Juglone; weeds about 0-2 weeks post emergent (about 2-5 cm); 7 days after treatment", "protocol": "as §1\nFIG. 3 is a picture of three pots showing 7 day growth of Amaranthus rudis JD Sauer (Waterhemp), non-resistant, when left untreated, treated with 1% Juglone, and treated with a control (i.e. solvent/surfactant, no active ingredient), respectively."}, "[6]": {"system": "Solanum ptycanthum (eastern black nightshade), Group 2 Resistant", "assay": "Post-emergent treatment of potted weeds with herbicide composition, 7 day growth (FIG. 6)", "conditions": "1% Juglone; weeds about 0-2 weeks post emergent (about 2-5 cm); 7 days after treatment", "protocol": "as §1\nFIG. 6 is a picture of two pots showing 7 day growth of Solanum ptycanthum (eastern black nightshade), Group 2 Resistant, when left untreated and treated with […] Juglone, respectively."}, "[7]": {"system": "Chenopodium album L. (lamb's quarters), Group 2,5 Resistant", "assay": "Post-emergent treatment of potted weeds with herbicide composition, 7 day growth (FIG. 4)", "conditions": "1% Juglone; weeds about 0-2 weeks post emergent (about 2-5 cm); 7 days after treatment", "protocol": "as §1\nFIG. 4 is a picture of three pots showing 7 day growth of Chenopodium album L. (lamb's quarters), Group 2,5 Resistant, when left untreated, treated with 1% Juglone, and treated with a control (i.e. solvent/surfactant, no active ingredient), respectively."}, "weeds": {"system": "weeds", "assay": "Onset of plant damage after treatment of weeds with herbicide composition", "conditions": "1% Juglone concentration; weeds about 0-2 weeks post emergent; in most cases", "protocol": "as §1"}}, "note": "Entries after “also recorded” stand apart in the source; their conditions may differ."}
{"smiles": "O=C1C=CC(=O)c2c(O)cccc21", "note": "[Juglone, 5-hydroxy-1,4-naphthalenedione]", "values": [{"measurement": "control of growth of Amaranthus hybridus L. (smooth pigweed), Group 2,5 Resistant", "setting": "[1]", "result": "effectively controlled the growth"}, {"measurement": "control of growth of Amaranthus retroflexus L. (pigweed), Group 2,5 Resistant", "setting": "[2]", "result": "effectively controlled the growth"}, {"measurement": "control of growth of Amaranthus rudis JD Sauer (Waterhemp), Group 2,4,5,14,9,27 Resistant", "setting": "[3]", "result": "effectively controlled the growth; also recorded: did control the growth"}, {"measurement": "control of growth of Amaranthus powelli", "setting": "[4]", "result": "effectively controlled the growth"}, {"measurement": "control of growth of Amaranthus rudis JD Sauer (Waterhemp), non-resistant", "setting": "[5]", "result": "did not effectively control the growth"}, {"measurement": "control of growth of Solanum ptycanthum (eastern black nightshade), Group 2 Resistant", "setting": "[6]", "result": "effectively controlled the growth"}, {"measurement": "control of growth of Chenopodium album L. (lamb's quarters), Group 2,5 Resistant", "setting": "[7]", "result": "effectively controlled the growth"}, {"measurement": "time to observed plant damage after treatment", "setting": "weeds", "result": "two"}]}
